# Assay results taken from US8741807B2 (priority 2011, dated 2014).
# “Also recorded” adds a separate entry of the source.
# Key:
# Arabidopsis thaliana = assay: Cell death in Arabidopsis thaliana by visual inspection; format: in vivo; details: same manner as Example 4, visual inspection, 3 and 7 days
# Description: (§1) It is known that spermidine treatment of leaf blades forms HR (Hypersensitive Response) like cell death spots in various plant species (Plant Physiol., 132(4), pp. 1973-1981, […]).
# [1] = tested on: rice blast fungus (Kyu89-246, MAFF101506, race 003.0); format: cell-based; details: for antifungal activity against the rice blast fungus: even at the 10 mM concentration; for formation of inhibition ring against the rice blast fungus: filter paper disks, 1 mM, 5 mM or 10 mM, 28° C., 5 to 6 days, light shielding
# [2] = tested on: rice plants at the five-leaf stage; details: 5 mM, no inoculation
# [3] = tested on: leaf blade of rice plant (variety name: Nipponbare); assay: Cell death spot formation on rice plant leaf blade after dropping spermidine derivative solution; format: in vivo; details: for severity of cell death compared with the compounds not introduced with hydroxyl group (Lau or ^1N Lau): same manner as Example 4, rice leaf blade; for formation of cell death spots: 1 mM aqueous solution (0.1% Tween 20), 5 μl dropped on rice leaf blade, visually evaluated
# Description: as §1
# The results of examination for severity of cell death are shown in FIG. 12, and those for formation of cell death spots are shown in FIG. 13. The severity of cell death was enhanced by each of the compounds introduced with one hydroxyl group at the terminal carbon atom of the lauroyl group (HydLau: YIS12OH4N, 1NHydLau: YIS12OH1N) compared with the compounds not introduced with hydroxyl group (Lau or ^1N Lau).
# PR1 gene = PR1 gene expression enhancing action in Arabidopsis thaliana; format: in vivo; details: after 24 hours and 72 hours
# [4] = tested on: leaf disks cut out from rice plant leaf blades; assay: Phytoalexin production in rice plant leaf disks immersed in aqueous solution; details: 0.5 mM aqueous solution, 72 hours; not so severe compared with copper chloride
compound,measurement,setting,value
"NCCCCN(CCCN)C(=O)CCCCCCCCCCCO [YIS12OH4N, ^4N-(12-hydroroxylauroyl)-spermidine]",cell death in Arabidopsis thaliana,Arabidopsis thaliana,induced severe cell death
same,antifungal activity against the rice blast fungus,[1],did not have antifungal activity
same,formation of inhibition ring against the rice blast fungus,[1],Formation of inhibition ring was not observed
same,cell death spots when only the test compounds were sprayed,[2],cell death spots were not observed
same,severity of cell death compared with the compounds not introduced with hydroxyl group (Lau or ^1N Lau),[3],enhanced
same,PR1 gene expression enhancing action relative to 1NHydLau,PR1 gene,about 3 times
^4N-nonanoylspermidine,formation of cell death spots,[3],formation of fine cell death spots
^1N-lauroylspermidine [^1N Lau],formation of cell death spots,[3],formation of fine cell death spots
"NCCCCNCCCN [Spd, Spermidine, reference compound]",formation of cell death spots,[3],observed only in a part of the treated leaves
"NCCCCNCCCNC(=O)CCCCCCCCCCCO [YIS12OH1N, 1-N-(12-hydroroxylauroyl)-spermidine]",cell death in Arabidopsis thaliana,Arabidopsis thaliana,induced severe cell death
same,antifungal activity against the rice blast fungus,[1],did not have antifungal activity
same,formation of inhibition ring against the rice blast fungus,[1],Formation of inhibition ring was not observed
same,cell death spots when only the test compounds were sprayed,[2],cell death spots were not observed
same,severity of cell death compared with the compounds not introduced with hydroxyl group (Lau or ^1N Lau),[3],enhanced
^1N-nonanoylspermidine [^1N Non],cell death in Arabidopsis thaliana,Arabidopsis thaliana,induced severe cell death
same,formation of cell death spots,[3],formation of fine cell death spots
^4N-lauroylspermidine,formation of cell death spots,[3],formation of fine cell death spots; also recorded: potent cell death induction effect
same,browning of leaf disks,[4],browning of leaf disks
same,phytoalexin accumulation,[4],evident phytoalexin accumulation
